From patent US11484031B2, “Seed coating agent for preventing and treating wheat rot disease” (Institute of Plant Protection and Agro-products Safety, …, priority 2020, dated 2022)

Experiments:
[1] = system: Gaeumannomycesgraminisvar. tritici; assay: Mycelial growth assay (virulence test) of single agents and mixtures, Wadley method; format: cell-based; details: mycelial growth on medicated medium, 25° C.; ratio G:D = silothiamine:coumoxystrobin
Method: The bactericidal properties of silthiopham and coumoxystrobin are analyzed in detail. First, the EC50 ([…]) of the two single compounds of silthiostrobin and coumoxystrobin is determined. According to the EC50 of the two single drugs, the combination ratio of the two drugs is determined according to the Wadley method, and synergy coefficient SR value according to Wadley.
The test target is Gaeumannomycesgraminisvar. tritici, which causes wheat rot disease, but it is not limited to this. Silthiopham and coumoxystrobin are taken and prepared into a liquid plate about 15 ml per dish. At the edge of the pre-cultured colony, a 5 mm diameter hyphae block is prepared with a sterile puncher, and then transferred to different medium plates and cultured at 25° C. The test adopts the mycelial growth assay method, and prepares medicated medium according to different treatments. At the edge of the pre-cultured colony, a 5 mm diameter hyphae block is prepared with a sterile puncher, and then transferred to medium plates with different drug contents. […]
According to the Wadley method to evaluate the interaction of the mixture, the calculation formula is as follows: EC50(theoretical value)=(a+b)/(a/EC50a+b/EC50b), SR=EC50(theoretical value)/EC50(actual value). wherein, a and b are the content ratio of each component in the mixture, and the effect of mixing is analyzed by SR value. […]

wheat seeds = assay: Seed soaking test: emergence rate and seedling stage of wheat seeds; format: in vivo, wheat variety "An Nong 0711"; details: seed soaking seed:drug solution=1:2, 20 minutes, after 40 days, compound sodium nitrophenolate at 0.05%, salicylic acid at 0.01%
Method: Seed initiator composition 1 with a measured content of 0.06% (compound sodium nitrophenolate 0.05%, salicylic acid 0.01%, the balance water) was diluted 10 times to form seed initiator composition 2 with a content of 0.006% (compound sodium nitrophenolate 0.005%, salicylic acid 0.001%, the balance water). The seed initiator composition 2 was treated with 0.05% compound sodium nitrophenolate, 0.01% salicylic acid and distilled water as a control. The effect on […] seed vigor was determined according to the above compositions. The experimental wheat variety was “An Nong 0711”, and the experiment was carried out in the experimental base of Anhui Academy of Agricultural Sciences. Seed soaking is carried out according to the weight ratio of seed:drug solution=1:2. After soaking for 20 minutes, sowing in the shade and drying in the shade, the seedling emergence rate, plant height, root length and fresh weight are calculated after 40 days.

SMILES: CCCCc1c(C)c2ccc(OCc3ccccc3/C(=C\OC)C(=O)OC)cc2oc1=O [Coumoxystrobin(D), (E)-2-(2-(3-n-butyl-4methyl-coumarin-7-yloxy)methylphenyl)-3-methoxy Methyl acrylate]
- EC50 [1]: 2.3127 ppm

SMILES: O=C(O)c1ccccc1O [Salicylic acid]
- Fresh weight (10 plants, g) (wheat seeds; 10 plants): 1.28 ± 0.17 g
- Emergence rate (wheat seeds): 83.8%
- Plant height (wheat seeds): 10.5 ± 1.7 cm
- Root length (wheat seeds): 4.8 ± 1.3 cm

SMILES: C=CCNC(=O)c1c([Si](C)(C)C)sc(C)c1C [Silothiamine(G), N-allyl-4,5-dimethyl-2-(trimethylsilyl) thiophene-3-carboxamide]
- EC50 [1]: 0.6893 ppm
